Consider seven compounds from BindingDB's records for doi:10.1016/j.bioorg.2016.08.011 (Recep Tayyip Erdogan University, 2016).

Usually IC50 stands for the concentration needed to halve the response being measured. A high value points to weaker potency in that assay.

The target of this experiment is Alpha-glucosidase MAL12 (Saccharomyces cerevisiae (strain ATCC 204508 / S288c), UniProt P53341). The experiment can be described thus: α-Glucosidase inhibition assay. Particulars: pH 6.8. The procedure: α-Glucosidase inhibition assay was performed spectrophotometrically. α-Glucosidase from Saccharomyces cerevisiae (Sigma-Aldrich) was dissolved in phosphate buffer (pH 6.8, 50 mM). Test compounds were dissolved in DMSO. In 96-well microtiter plates, 20 µL of test sample, 20 µL of enzyme (20 mU/mL) and 135 µL of buffer were added and incubated for 15 min at 37 °C. After incubation, 25 µL of p-nitrophenyl-α-D-glucopyranoside (2 mM, Sigma Aldrich) was added and change in absorbance was monitored for 20 min at 400 nm. Test compound was replaced by DMSO (10% final) as control. […] The assays were done in triplicate.
Chain of Alpha-glucosidase MAL12 (P53341 whole entry): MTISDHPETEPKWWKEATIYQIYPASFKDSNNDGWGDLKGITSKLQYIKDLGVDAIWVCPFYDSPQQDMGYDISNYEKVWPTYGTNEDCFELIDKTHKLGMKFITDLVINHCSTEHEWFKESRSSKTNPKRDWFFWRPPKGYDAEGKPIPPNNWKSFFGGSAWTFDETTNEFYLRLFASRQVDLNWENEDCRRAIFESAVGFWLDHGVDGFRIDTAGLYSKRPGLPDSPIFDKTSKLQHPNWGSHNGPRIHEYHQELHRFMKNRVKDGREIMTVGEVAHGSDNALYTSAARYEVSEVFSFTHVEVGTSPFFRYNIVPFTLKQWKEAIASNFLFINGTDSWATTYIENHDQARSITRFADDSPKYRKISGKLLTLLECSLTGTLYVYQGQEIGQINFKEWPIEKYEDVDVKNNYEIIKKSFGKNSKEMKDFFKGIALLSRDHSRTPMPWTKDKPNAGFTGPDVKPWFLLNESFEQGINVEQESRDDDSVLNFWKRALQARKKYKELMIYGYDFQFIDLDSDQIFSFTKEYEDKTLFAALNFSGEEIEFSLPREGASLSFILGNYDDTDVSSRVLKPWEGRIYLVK
Regarding `NNC(=O)Cn1c(Cc2ccc(Cl)cc2Cl)nc2ccc([N+](=O)[O-])cc21` [2-[2-(2,4-Dichlorobenzyl)-6-nitro-1H-benzimidazol-1-yl]acetohydrazide (4b)], the IC50 amounted to 10.5 µM.
Regarding `O=C(Cn1c(Cc2ccc(Cl)cc2Cl)nc2ccccc21)NNC(=S)Nc1ccccc1` [2-{[2-(2,4-Dichlorobenzyl)-1H-benzimidazol-1-yl]acetyl}-N-phenylhydrazinecarbothioamide (6a)], the IC50 came out at 141 µM.
Compound `O=C(Cn1c(Cc2ccc(Cl)cc2Cl)nc2ccc([N+](=O)[O-])cc21)NNC(=S)Nc1ccccc1` [2-{[2-(2,4-Dichlorobenzyl)-6-nitro-1H-benzimidazol-1-yl]acetyl}-N-phenyl hydrazinecarbothioamide (6b)] registered a half-maximal inhibitory concentration (IC50) of 93 µM.
As to `Sc1nnc(Cn2c(Cc3ccc(Cl)cc3Cl)nc3ccccc32)o1` [5-{[2-(2,4-Dichlorobenzyl)-1H-benzimidazol-1-yl]methyl}-1,3,4-oxadiazole-2-thiol (5a)], half-maximal inhibition (IC50) required 254 µM.
On to `Clc1ccc(Cc2nc3ccccc3n2Cc2nnc(Nc3ccccc3)s2)c(Cl)c1` [5-{[2-(2,4-Dichlorobenzyl)-1H-benzimidazol-1-yl]methyl}-N-phenyl-1,3,4-thiadiazol-2-amine (8a)], for which 158 µM corresponded to half-maximal inhibition (IC50).
The compound `O=[N+]([O-])c1ccc2nc(Cc3ccc(Cl)cc3Cl)n(Cc3nnc(S)o3)c2c1` [5-{[2-(2,4-Dichlorobenzyl)-6-nitro-1H-benzimidazol-1-yl]methyl}-1,3,4-oxadiazole-2-thiol (5b)] returned an IC50 of 26.9 µM.
As for `O=[N+]([O-])c1cccc2nc(Cc3ccc(Cl)cc3Cl)n(Cc3nnc(S)n3-c3ccccc3)c12` [5-{[2-(2,4-Dichlorobenzyl)-7-nitro-1H-benzimidazol-1-yl]methyl}-4-phenyl-4H-1,2,4-triazole-3-thiol (7b)], the figure is 40.5 µM.
